13 compounds from patent publication US20030105119A1, “Barbiturates as integrin antagonists and their use for treating inflammatory diseases” (priority 2001, published 2003) can be followed below.

The target in the assay is T1, α4β7 integrin binding to human MAdCAM-1-Ig (Homo sapiens, UniProt P13612+P26010).
T1 construct: endogenous in cells; host or cells: RPMI 8866 cells
T1 sequence (P13612 34-1032): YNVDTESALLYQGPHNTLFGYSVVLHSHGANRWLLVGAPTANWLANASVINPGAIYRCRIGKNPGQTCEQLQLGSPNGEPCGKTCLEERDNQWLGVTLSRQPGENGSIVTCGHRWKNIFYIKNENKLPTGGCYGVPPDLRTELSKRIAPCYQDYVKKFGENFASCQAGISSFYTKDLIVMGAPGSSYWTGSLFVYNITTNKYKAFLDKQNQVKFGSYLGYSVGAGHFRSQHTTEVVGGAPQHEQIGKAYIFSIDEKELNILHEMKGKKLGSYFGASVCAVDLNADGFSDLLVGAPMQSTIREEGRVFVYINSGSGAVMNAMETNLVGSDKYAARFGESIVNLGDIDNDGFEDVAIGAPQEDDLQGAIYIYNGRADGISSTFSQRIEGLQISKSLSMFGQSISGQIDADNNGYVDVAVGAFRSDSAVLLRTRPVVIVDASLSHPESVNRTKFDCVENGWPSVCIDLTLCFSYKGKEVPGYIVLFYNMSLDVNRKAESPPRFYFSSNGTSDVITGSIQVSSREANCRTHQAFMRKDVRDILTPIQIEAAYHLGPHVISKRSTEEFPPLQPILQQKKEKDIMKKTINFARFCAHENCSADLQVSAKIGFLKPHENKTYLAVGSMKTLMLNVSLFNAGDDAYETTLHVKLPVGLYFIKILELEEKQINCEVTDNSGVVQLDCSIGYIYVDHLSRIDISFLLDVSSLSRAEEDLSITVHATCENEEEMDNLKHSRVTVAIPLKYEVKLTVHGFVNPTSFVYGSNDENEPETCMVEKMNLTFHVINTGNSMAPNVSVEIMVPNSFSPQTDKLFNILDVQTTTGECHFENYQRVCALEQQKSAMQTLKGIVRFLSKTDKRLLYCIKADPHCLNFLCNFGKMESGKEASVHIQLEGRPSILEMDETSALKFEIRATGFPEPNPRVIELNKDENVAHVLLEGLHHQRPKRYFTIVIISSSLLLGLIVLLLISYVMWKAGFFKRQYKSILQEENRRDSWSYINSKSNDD
T1 sequence (P26010 20-798): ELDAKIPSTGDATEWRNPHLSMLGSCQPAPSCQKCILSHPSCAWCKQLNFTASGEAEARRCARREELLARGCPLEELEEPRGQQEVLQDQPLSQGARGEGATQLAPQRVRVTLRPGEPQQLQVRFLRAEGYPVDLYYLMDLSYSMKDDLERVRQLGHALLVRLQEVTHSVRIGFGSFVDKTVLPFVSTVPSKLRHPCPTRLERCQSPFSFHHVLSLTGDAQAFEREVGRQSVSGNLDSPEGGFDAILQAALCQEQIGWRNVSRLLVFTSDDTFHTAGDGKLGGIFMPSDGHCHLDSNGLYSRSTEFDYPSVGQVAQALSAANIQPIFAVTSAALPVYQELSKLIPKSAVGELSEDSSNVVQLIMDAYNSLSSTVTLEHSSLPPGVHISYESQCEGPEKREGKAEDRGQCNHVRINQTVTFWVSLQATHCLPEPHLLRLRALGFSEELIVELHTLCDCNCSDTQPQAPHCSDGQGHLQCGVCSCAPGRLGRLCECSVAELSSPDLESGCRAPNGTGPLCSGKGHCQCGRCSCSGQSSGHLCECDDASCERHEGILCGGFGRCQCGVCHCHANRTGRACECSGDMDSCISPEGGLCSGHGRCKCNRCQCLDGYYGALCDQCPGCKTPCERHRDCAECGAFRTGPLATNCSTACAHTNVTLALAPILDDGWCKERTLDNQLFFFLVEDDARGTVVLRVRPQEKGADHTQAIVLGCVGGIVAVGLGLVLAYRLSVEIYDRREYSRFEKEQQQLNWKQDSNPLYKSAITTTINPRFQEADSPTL
Nature of the assay: Adhesion inhibition assay (BCEF-labeled RPMI 8866 cells on huMAdCAM-1-Ig coated plates). The class given is cell-based. The procedure: Biological Results. Adhesion Inhibition Assay Method
RPMI 8866 cells are used in this assay. They are available in a medium with 10% FBS, 200 mM L-Glutamine, and penicillin/streptomycin 10x.
1. Coat plates (costar 3590) with a human MAdCAM-1-Ig dilution prepared in carbonate buffer (25 ng of huMAdCAM/well in 50 μl carbonate buffer) overnight at 4° C. Carbonate buffer is NaHCO3 3.44 g, Na2CO3 1.72 g, water qs 200 ml; adjust pH to 9.5, filter thru 0.2 μm and store at 4° C.
2. Wash plates with the plate washer (BioTeck Instruments EL404) once, using settings for washing cell rinse, with the following parameters:
3. Block wells with blocking buffer (10% calf serum, PBS), 100 μl/well, 37° C., 3 h.
4. Wash plates with the plate washer once, using settings for washing cell rinse. Use plates within 10 min after washing.
5. Label the RPMI 8866 cells with 2′,7′-bis-(2-carboxyethyl)-5-6-carboxy-fluorescein acetoxymethyl ester (BCEF-AM) as follows:
spin down the cells at 1500 rpm, 10 min. Decant supernatant. Resuspend cells at 4×10^6 cells/ml sterile PBS in 50 ml polypropylene tube. Add 2 μl BCEF-AM per ml of resuspended cells. Mix well and wrap tube in aluminum foil (to exclude light). Place cells at 37° C. for 30 min to label. Spin labeled cells down (while covered in aluminum foil) at 1500 rpm, 10 min. Decant supernatant. Resuspend labeled cells in 25 ml assay buffer and centrifuge at 1500 rpm, 10 min. Resuspend labeled cells in assay buffer at 2.5×10^6 cells/ml.
(assay buffer: HBSS, penicillin/streptomycin 10×, MnCl2 0.5 mM, Hepes 25 mM, pH=7.2)
6. Prepare dilutions of positive control: LDP-02 (α4β7 integrin blocking antibody) in assay buffer at 250 μg/ml and compounds of the invention in DMSO for addition to assay plates.
7. To polypropylene plate, add, with Multimek:
2.2 μl/well of 100% DMSO or compound dilutions;
147.8 μl/well of assay buffer to all wells;
50 μl/well of BCEF-labeled RPMI 8866 cells (at 2.5×10^6 cells/ml assay buffer);
Mix well and add 180 μl of the mix to huMAdCAM-1-Ig coated plate.
8. Read plate in fluorescent plate reader (excite at 485 nm, read at 535 nm) and adjust the gain (total signal).
9. Wrap plates in aluminum foils and incubate at 25° C. for 30 min.
10. Wash plates with the plate washer using settings for washing cell rinse.
11. Read plate in fluorescent plate reader (excite at 485 nm, read at 535 nm).
The following Table 2 summarizes the results for some of the compounds and indicates the IC50 in μM.

Each structure is given as a SMILES string.

`O=C1NC(=O)N(c2cccc3ccccc23)C(=O)/C1=C\c1c[nH]c2ccccc12` [Example 1, 5-(1H-Indol-3-ylmethylene)-naphthalen-1-yl-pyrimidine-2,4,6-trione]: the IC50 came out at 410 nM.

Regarding `Cn1cc(/C=C2/C(=O)NC(=O)N(c3cccc4ccccc34)C2=O)c2ccccc21` [Example 2, 5-(1-Methyl-1H-indol-3-ylmethylene)-1-naphthalen-1-yl-pyrimidine-2,4,6-trione], the IC50 turned out to be 940 nM.

As to `Cc1ccccc1N1C(=O)NC(=O)/C(=C/c2cn(C)c3ccccc23)C1=O` [Example 15, 5-(1-Methyl-1H-indol-3-ylmethylene)-1-o-tolyl-pyrimidine-2,4,6-trione], the IC50 is 2300 nM.

For the compound `Cc1cccc(N2C(=O)NC(=O)/C(=C\C=C\c3ccccc3)C2=O)c1` [Example 16, 5-(3-Phenyl-allylidene)-1-m-tolyl-pyrimidine-2,4,6-trione], the IC50 turned out to be 900 nM.

Consider `Cc1cccc(N2C(=O)NC(=O)/C(=C/c3c[nH]c4ccccc34)C2=O)c1` [Example 17, 5-(1H-Indol-3-ylmethylene)-1-m-tolyl-pyrimidine-2,4,6-trione], for which the IC50 worked out at 2930 nM.

In the case of `O=C1NC(=O)N(c2ccccc2Cl)C(=O)/C1=C\c1c[nH]c2ccccc12` [Example 18, 1-(2-Chloro-phenyl)-5-(1H-indol-3-ylmethylene)-pyrimidine-2,4,6-trione], the IC50 turned out to be 2500 nM.

In turn, `Cc1cccc(N2C(=O)NC(=O)/C(=C\c3ccc[nH]3)C2=O)c1` [Example 24, 5-(Pyrrol-2-ylmethylene)-1-m-tolyl-pyrimidine-2,4,6-trione] had an IC50 of 2950 nM.

For the compound `Cc1ccccc1N1C(=O)NC(=O)/C(=C/C=C/c2ccccc2)C1=O` [Example 35, 5-(3-Phenyl-allylidene)-1-o-tolyl-pyrimidine-2,4,6-trione], the IC50 came out at 2650 nM.

Take `O=C1NC(=O)N(c2cccc(Cl)c2)C(=O)/C1=C/c1c[nH]c2ccccc12` [Example 37, 1-(3-Chloro-phenyl)-5-(1H-indol-3-ylmethylene)-pyrimidine-2,4,6-trione]: the IC50 came out at 2750 nM.

The compound `Cc1ccc(N2C(=O)NC(=O)/C(=C\C=C\c3ccccc3)C2=O)cc1` [Example 42, 5-(3-Phenyl-allylidene)-1-p-tolyl-pyrimidine-2,4,6-trione] gave an IC50 of 2600 nM.

`O=C1NC(=O)N(c2ccccc2Cl)C(=O)/C1=C\C=C\c1ccccc1` [Example 43, 1-(2-Chloro-phenyl)-5-(3-phenyl-allylidene)-pyrimidine-2,4,6-trione] yielded an IC50 of 1900 nM.

Consider `O=C1NC(=O)N(Cc2cccnc2)C(=O)/C1=C/c1c[nH]c2ccccc12` [Example 49, 5-(1H-indol-3-ylmethylene)-1-pyridin-3-ylmethyl-pyrimidine-2,4,6-trione], for which the IC50 worked out at 1300 nM.

In the case of `O=C1NC(=O)N(c2cccc3cccnc23)C(=O)/C1=C/C=C/c1ccccc1` [Example 51, 5-(3-Phenyl-allylidene)-1-quinolin-8-yl-pyrimidine-2,4,6-trione], the IC50 was 2700 nM.
